In brackets after ≈: the same amount, converted by molar mass.
Assays:
[1] = Selectivity index, EC50 for against african green monkey Vero cells to IC50 for Mycobacterium tuberculosis H37Rv; type: functional
[2] = test system: Vero; test: Cytotoxicity against african green monkey Vero cells; type: cell-based; details: Chlorocebus sabaeus
[3] = test system: Mycobacterium tuberculosis; test: Antimycobacterial activity against Mycobacterium tuberculosis H37Rv; type: functional, organism-based

Compound: N=c1c2ncnc(Nc3ccccc3)c2ncn1NC(=O)c1ccccc1
- Ratio [1]: 0.38
- EC50 [2]: 2.35 µg/mL (≈ 6.58 µM)
- IC50 [3]: 3.65 µg/mL (≈ 10.2 µM)
- IC90 [3]: 17.4 µM

Compound: N=c1c2ncnc(Nc3ccccc3)c2ncn1NC(=O)c1ccco1
- IC50 [3]: 3.16 µg/mL (≈ 9.1 µM)
- IC90 [3]: 14 µM

Compound: CC(=O)Nn1cnc2c(Nc3ccccc3)ncnc2c1=N
- IC50 [3]: 44.9 µg/mL (≈ 152 µM)
- IC90 [3]: > 314 µM

Compound: N#Cc1ccc(Nc2ncnc3c(=N)n(NC(=O)c4ccncc4)cnc23)cc1
- IC50 [3]: 17.2 µg/mL (≈ 44.9 µM)
- IC90 [3]: > 240 µM

Compound: COc1ccc(Nc2ncnc3c(=N)n(NC(=O)c4ccccc4)cnc23)cc1
- Ratio [1]: 0.23
- EC50 [2]: 2.12 µg/mL (≈ 5.47 µM)
- IC50 [3]: 4.11 µg/mL (≈ 10.6 µM)
- IC90 [3]: 23.4 µM

Compound: COc1ccc(Nc2ncnc3c(=N)n(NC(=O)c4ccco4)cnc23)cc1
- IC50 [3]: 3.56 µg/mL (≈ 9.43 µM)
- IC90 [3]: 261 µM

Compound: COc1ccc(Nc2ncnc3c(=N)n(NC(C)=O)cnc23)cc1
- IC50 [3]: 46.5 µg/mL (≈ 143 µM)
- IC90 [3]: > 298 µM

Compound: N=c1c2ncnc(Nc3ccccc3)c2ncn1NC(=O)c1ccncc1
- Ratio [1]: 0.57
- EC50 [2]: 4.37 µg/mL (≈ 12.2 µM)
- IC50 [3]: 4.3 µg/mL (≈ 12 µM)
- IC90 [3]: 21 µM

Compound: CC(=O)Nn1cnc2c(Nc3ccc(C#N)cc3)ncnc2c1=N
- IC50 [3]: 42.1 µg/mL (≈ 131 µM)
- IC90 [3]: > 311 µM

Compound: N#Cc1ccc(Nc2ncnc3c(=N)n(NC(=O)c4ccccc4)cnc23)cc1
- IC50 [3]: 2.47 µg/mL (≈ 6.46 µM)
- IC90 [3]: 36.1 µM

Compound: N=c1c2ncnc(Nc3ccc(F)cc3)c2ncn1NC(=O)c1ccncc1
- Ratio [1]: 0.43
- EC50 [2]: 1.53 µg/mL (≈ 4.07 µM)
- IC50 [3]: 0.91 µg/mL (≈ 2.42 µM)
- IC90 [3]: 9.12 µM

Compound: N=c1c2ncnc(Nc3ccc(F)cc3)c2ncn1NC(=O)c1ccccc1
- Ratio [1]: 0.6
- EC50 [2]: 3.05 µg/mL (≈ 8.13 µM)
- IC50 [3]: 2.92 µg/mL (≈ 7.78 µM)
- IC90 [3]: 13.5 µM

Compound: N=c1c2ncnc(Nc3ccc(F)cc3)c2ncn1NC(=O)c1ccco1
- IC50 [3]: 2.17 µg/mL (≈ 5.94 µM)
- IC90 [3]: 9.77 µM

Compound: CC(=O)Nn1cnc2c(Nc3ccc(F)cc3)ncnc2c1=N
- IC50 [3]: 18.7 µg/mL (≈ 59.7 µM)
- IC90 [3]: 91.4 µM

Compound: COc1ccc(Nc2ncnc3c(=N)n(NC(=O)c4ccncc4)cnc23)cc1
- Ratio [1]: 0.27
- EC50 [2]: 1.15 µg/mL (≈ 2.96 µM)
- IC50 [3]: 1.59 µg/mL (≈ 4.09 µM)
- IC90 [3]: 9.49 µM

Reference: ChEMBL document CHEMBL1177877, “Synthesis and in vitro evaluation of substituted pyrimido[5,4-d]pyrimidines as a novel class of anti-Mycobacterium tuberculosis agents” (Eur J Med Chem, 2010)
